Values quoted from earlier work, collected in patent publication US10300068B2, “Method of treating insomnia” (priority 2015, dated 2019).

What was measured:
[1] = Day 4, once-daily 40 mg, mild to moderate obstructive sleep apnea, n=26; 90% CI 0.22 to 5.09
[2] = 40 mg non-elderly, 30 mg elderly; mild to moderate COPD, n=25
[3] = 20 mg, healthy adults
[4] = patients, assessed by questionnaire
[5] = co-administered with alcohol
intestinal P-gp = intestinal P-gp (Homo sapiens, UniProt P08183); details: concomitant administration with digoxin
intestinal P-gp, sequence (P08183 whole entry): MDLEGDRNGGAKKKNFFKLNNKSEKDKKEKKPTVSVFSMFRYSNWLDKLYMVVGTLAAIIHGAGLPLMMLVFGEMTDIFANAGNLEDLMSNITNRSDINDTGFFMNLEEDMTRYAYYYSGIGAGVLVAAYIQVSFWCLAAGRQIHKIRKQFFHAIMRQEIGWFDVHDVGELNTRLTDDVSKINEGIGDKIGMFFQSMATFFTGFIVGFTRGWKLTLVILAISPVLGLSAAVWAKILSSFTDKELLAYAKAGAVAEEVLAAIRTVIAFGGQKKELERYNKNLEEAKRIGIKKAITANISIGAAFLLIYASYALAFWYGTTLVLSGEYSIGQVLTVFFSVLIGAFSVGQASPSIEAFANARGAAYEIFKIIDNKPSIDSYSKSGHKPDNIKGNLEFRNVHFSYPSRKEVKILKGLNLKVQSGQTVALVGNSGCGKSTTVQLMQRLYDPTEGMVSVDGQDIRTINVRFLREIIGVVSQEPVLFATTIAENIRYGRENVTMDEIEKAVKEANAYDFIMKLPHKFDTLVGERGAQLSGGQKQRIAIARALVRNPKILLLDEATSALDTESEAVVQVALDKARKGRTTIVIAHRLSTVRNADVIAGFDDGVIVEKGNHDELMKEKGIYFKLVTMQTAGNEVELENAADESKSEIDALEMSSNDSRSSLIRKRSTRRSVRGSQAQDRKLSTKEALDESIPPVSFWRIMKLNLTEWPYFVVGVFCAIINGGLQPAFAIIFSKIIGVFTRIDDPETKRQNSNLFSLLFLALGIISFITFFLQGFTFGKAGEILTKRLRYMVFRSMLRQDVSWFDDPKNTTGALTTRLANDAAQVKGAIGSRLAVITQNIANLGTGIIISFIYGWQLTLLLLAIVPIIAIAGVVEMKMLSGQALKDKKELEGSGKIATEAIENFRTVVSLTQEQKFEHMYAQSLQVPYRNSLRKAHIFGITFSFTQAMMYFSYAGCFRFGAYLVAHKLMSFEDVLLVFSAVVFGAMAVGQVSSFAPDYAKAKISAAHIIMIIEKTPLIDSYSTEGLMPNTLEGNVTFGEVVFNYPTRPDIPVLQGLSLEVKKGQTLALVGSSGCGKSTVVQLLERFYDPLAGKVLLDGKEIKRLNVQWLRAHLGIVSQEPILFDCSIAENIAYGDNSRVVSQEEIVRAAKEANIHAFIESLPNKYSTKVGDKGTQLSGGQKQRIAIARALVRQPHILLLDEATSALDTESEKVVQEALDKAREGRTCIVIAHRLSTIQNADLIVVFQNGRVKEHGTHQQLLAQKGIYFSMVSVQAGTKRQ

[6] = obese vs non-obese patients, women vs men
[7] = tested on: epicardial coronary arteries; details: patients with coronary artery disease

Structure (SMILES) | mean Apnea/Hypopnea Index treatment difference (suvorexant-placebo) [1] | respiratory depressant effects as measured by oxygen saturation [2] | physical dependence with prolonged use (completed clinical trials) | withdrawal symptoms after discontinuation (human, in vivo) | driving ability [3] | suicidal ideation [4] | pharmacokinetics of BELSOMRA [5] | psychomotor impairment [5] | digoxin levels (intestinal P-gp) | exposure [6] | relaxation of epicardial coronary arteries [7]
Cc1ccc(-n2nccn2)c(C(=O)N2CCN(c3nc4cc(Cl)ccc4o3)CC[C@H]2C)c1 [BELSOMRA, suvorexant] | 2.7 | no respiratory depressant effects | no evidence for physical dependence | no reported withdrawal symptoms | impaired in some individuals | dose-dependent increase | no alteration | additive psychomotor impairment | slightly increased | increased | –
CCCc1nn(C)c2c(=O)[nH]c(-c3cc(S(=O)(=O)N4CCN(C)CC4)ccc3OCC)nc12 [sildenafil] | – | – | – | – | – | – | – | – | – | – | relax epicardial coronary arteries
